Assay results: patent US6737383B1, “Herbicidal oxadiazolidines” (priority 1999, dated 2004)

How the values were obtained:
[1] = tested on: morningglory; assay: Test A morningglory; type: in vivo, Ipomoea spp.; settings: 0 to 10 scale where 0 is no effect and 10 is complete control
Outline: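 Injury scored visually after about eleven greenhouse days against untreated plants, 0 = no effect, 10 = complete control. Compounds, formulated in surfactant-containing non-phytotoxic solvent, were applied as preemergence soil drench to sandy loam plantings and as postemergence runoff spray at the 1–2 leaf stage.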

[2] = tested on: dallisgrass; assay: Test D dallisgrass; type: in vivo, Paspalum dilatatum; settings: Preemergence, 0 to 100 scale
Outline: (§1)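 Each weed species is planted in its own pot or compartment; preemergence doses go on the sandy loam surface within a day. The formulation is a surfactant-containing, non-phytotoxic solvent blend. Ratings come from visual comparison with untreated controls 14 to 21 days later, where 100 means complete control.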

[3] = tested on: bermuda-grass; assay: Test D bermudagrass; type: in vivo, Cynodon dactylon; settings: Preemergence, 0 to 100 scale
Outline: as §1

[4] = tested on: tall mallow; assay: Test D tall mallow; type: in vivo, Malva sylvestris; settings: Preemergence, 0 to 100 scale
Outline: as §1

[5] = tested on: large crabgrass; assay: Test D large crabgrass; type: in vivo, Digitaria sanguinalis; settings: Preemergence, 0 to 100 scale
Outline: as §1

[6] = tested on: common pursiane; assay: Test D common purslane; type: in vivo, Portulaca oleracea; settings: Preemergence, 0 to 100 scale
Outline: as §1

[7] = tested on: itchgrass; assay: Test D itchgrass; type: in vivo, Rottboellia exaltata; settings: Preemergence, 0 to 100 scale
Outline: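 Scoring used a 0–100 visual injury scale, with 0 meaning no effect and 100 complete control, assessed 14–21 days after application alongside untreated pots. Preemergence treatments went onto sandy loam surfaces of separately potted seeds within a day of sowing.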

[8] = tested on: goosegrass; assay: Test D goosegrass; type: in vivo, Eleusine indica; settings: Preemergence, 0 to 100 scale
Outline: as §1

[9] = tested on: sandbur; assay: Test D sandbur; type: in vivo, Cenchrus echinatus; settings: Preemergence, 0 to 100 scale
Outline: as §1

[10] = tested on: Johnson grass; assay: Test D Johnson grass; type: in vivo, Sorghum halepense; settings: Preemergence, 0 to 100 scale
Outline: as §1

[11] = tested on: Alexandergrass; assay: Test D Alexandergrass; type: in vivo, Brachiaria plantaginea; settings: Preemergence, 0 to 100 scale
Outline: as §1

[12] = tested on: pitted morningglory; assay: Test D pitted morningglory; type: in vivo, Ipomoea lacunosa; settings: Preemergence, 0 to 100 scale
Outline: as §1

[13] = tested on: surinam grass; assay: Test D surinam grass; type: in vivo, Brachiaria decumbens; settings: Preemergence, 0 to 100 scale
Outline: as §1

[14] = tested on: common ragweed; assay: Test D common ragweed; type: in vivo, Ambrosia elatior; settings: Preemergence, 0 to 100 scale
Outline: as §1

[15] = tested on: Spanishneedles; assay: Test D Spanishneedles; type: in vivo, Bidens bipinnata; settings: Preemergence, 0 to 100 scale
Outline: as §1

[16] = tested on: guineagrass; assay: Test D guineagrass; type: in vivo, Panicum maximum; settings: Preemergence, 0 to 100 scale
Outline: as §1

[17] = tested on: purple nutsedge; assay: Test D purple nutsedge; type: in vivo, Cyperus rotundus; settings: Preemergence, 0 to 100 scale
Outline: as §1

[18] = tested on: common groundsel; assay: Test D common groundsel; type: in vivo, Senecio vulgaris; settings: Preemergence, 0 to 100 scale
Outline: as §1

[19] = tested on: Green foxtail; assay: Test D green foxtail; type: in vivo; settings: Preemergence, 0 to 100 scale
Outline: as §1

[20] = Rate 125 g/ha, 0 no injury, 100 complete control
[21] = Rate 16 g/ha, 0 no injury, 100 complete control
[22] = Rate 32 g/ha, 0 no injury, 100 complete control
[23] = Rate 64 g/ha, 0 no injury, 100 complete control

CCc1cccc(C)c1-n1c(=O)on(C(=O)N(c2ccc(F)cc2)C(C)C)c1=O [Compound 52]
Plant response rating, Morningglory ([1]; Postemergence, Rate 1000 g/ha): 1
Plant response rating, Morningglory ([1]; Pre-emergence, Rate 2000 g/ha): 0

Cc1cccc(Cl)c1-n1c(=O)on(C(=O)N(c2ccc(F)cc2)C(C)C)c1=O [Compound 53]
Plant response rating, Morningglory ([1]; Postemergence, Rate 1000 g/ha): 0
Plant response rating, Morningglory ([1]; Pre-emergence, Rate 2000 g/ha): 0

CC(C)N(C(=O)n1oc(=O)n(C(C)C)c1=O)c1ccc(Cl)cc1 [Compound 114]
Plant response rating, Dallisgrass [2, 20]: 100
Plant response rating, Bermudagrass [3, 20]: 100
Tall Mallow plant response rating [4, 20]: 10
Plant response rating Large crabgrass [5, 20]: 100
Plant response rating, C. purslane [6, 20]: 0
Plant response rating, Itchgrass [7, 20]: 20
Plant response rating, Goosegrass [8, 20]: 100
Sandbur plant response rating [9, 20]: 85
Plant response rating Johnsongrass [10, 20]: 0
Plant response rating, Alexandergrass [11, 20]: 98
Plant response rating, P. morninglory [12, 20]: 0
Surinam grass plant response rating [13, 20]: 75
Plant response rating, C. ragweed [14, 20]: 0
Spanishneedles plant response rating [15, 20]: 0
Plant response rating, Morningglory ([1]; Postemergence, Rate 1000 g/ha): 10
Plant response rating, Morningglory ([1]; Pre-emergence, Rate 2000 g/ha): 6
Plant response rating, Guineagrass [16, 20]: 100
Purple nutsedge plant response rating [17, 20]: 20
Plant response rating, Com. groundsel [18, 20]: 85

C=CCn1c(=O)on(C(=O)N(c2ccc(F)cc2F)C(C)C)c1=O [Compound 151]
Plant response rating, Dallisgrass [2, 21]: 100
Plant response rating, Dallisgrass [2, 22]: 85
Plant response rating, Dallisgrass [2, 23]: 100
Plant response rating, Dallisgrass [2, 20]: 100
Plant response rating, Dallisgrass ([2]; Rate 250 g/ha): 100
Plant response rating, Dallisgrass ([2]; Rate 500 g/ha): 100
Plant response rating, Bermudagrass [3, 21]: 90
Plant response rating, Bermudagrass [3, 22]: 90
Plant response rating, Bermudagrass [3, 23]: 90
Plant response rating, Bermudagrass [3, 20]: 100
Plant response rating, Bermudagrass ([3]; Rate 250 g/ha): 100
Plant response rating, Bermudagrass ([3]; Rate 500 g/ha): 100
Plant response rating, Tall Mallow [4, 21]: 0
Plant response rating, Tall Mallow [4, 22]: 0
Tall Mallow plant response rating [4, 23]: 0
Tall Mallow plant response rating [4, 20]: 75
Plant response rating, Tall Mallow ([4]; Rate 250 g/ha): 85
Plant response rating, Tall Mallow ([4]; Rate 500 g/ha): 85
Plant response rating Large crabgrass [5, 21]: 98
Plant response rating Large crabgrass [5, 22]: 98
Plant response rating Large crabgrass [5, 23]: 100
Plant response rating Large crabgrass [5, 20]: 100
Plant response rating Large crabgrass ([5]; Rate 250 g/ha): 100
Plant response rating Large crabgrass ([5]; Rate 500 g/ha): 100
Plant response rating, C. purslane [6, 21]: 0
Plant response rating, C. purslane [6, 22]: 0
Plant response rating, C. purslane [6, 23]: 0
Plant response rating, C. purslane [6, 20]: 0
Plant response rating, C. purslane ([6]; Rate 250 g/ha): 0
Plant response rating, C. purslane ([6]; Rate 500 g/ha): 0
Plant response rating, Itchgrass [7, 21]: 0
Plant response rating, Itchgrass [7, 22]: 0
Plant response rating, Itchgrass [7, 23]: 75
Plant response rating, Itchgrass [7, 20]: 85
Plant response rating, Itchgrass ([7]; Rate 250 g/ha): 100
Plant response rating, Itchgrass ([7]; Rate 500 g/ha): 100
Plant response rating, Goosegrass [8, 21]: 85
Plant response rating, Goosegrass [8, 22]: 85
Plant response rating, Goosegrass [8, 23]: 100
Plant response rating, Goosegrass [8, 20]: 100
Plant response rating, Goosegrass ([8]; Rate 250 g/ha): 100
Plant response rating, Goosegrass ([8]; Rate 500 g/ha): 100
Plant response rating, Sandbur [9, 21]: 0
Plant response rating, Sandbur [9, 22]: 20
Sandbur plant response rating [9, 23]: 90
Sandbur plant response rating [9, 20]: 100
Plant response rating, Sandbur ([9]; Rate 250 g/ha): 100
Plant response rating, Sandbur ([9]; Rate 500 g/ha): 100
Plant response rating Johnsongrass [10, 21]: 0
Plant response rating Johnsongrass [10, 22]: 0
Plant response rating Johnsongrass [10, 23]: 40
Plant response rating Johnsongrass [10, 20]: 50
Plant response rating Johnsongrass ([10]; Rate 250 g/ha): 50
Plant response rating Johnsongrass ([10]; Rate 500 g/ha): 100
Plant response rating, Alexandergrass [11, 21]: 40
Plant response rating, Alexandergrass [11, 22]: 40
Plant response rating, Alexandergrass [11, 23]: 98
Plant response rating, Alexandergrass [11, 20]: 98
Plant response rating, Alexandergrass ([11]; Rate 250 g/ha): 100
Plant response rating, Alexandergrass ([11]; Rate 500 g/ha): 100
Plant response rating, P. morninglory [12, 21]: 0
Plant response rating, P. morninglory [12, 22]: 0
Plant response rating, P. morninglory [12, 23]: 0
Plant response rating, P. morninglory [12, 20]: 0
Plant response rating, P. morninglory ([12]; Rate 250 g/ha): 0
Plant response rating, P. morninglory ([12]; Rate 500 g/ha): 20
Plant response rating, Surinam grass [13, 21]: 30
Plant response rating, Surinam grass [13, 22]: 30
Surinam grass plant response rating [13, 23]: 85
Surinam grass plant response rating [13, 20]: 100
Plant response rating, Surinam grass ([13]; Rate 250 g/ha): 100
Plant response rating, Surinam grass ([13]; Rate 500 g/ha): 100
Plant response rating, C. ragweed [14, 21]: 0
Plant response rating, C. ragweed [14, 22]: 0
Plant response rating, C. ragweed [14, 23]: 0
Plant response rating, C. ragweed [14, 20]: 0
Plant response rating, C. ragweed ([14]; Rate 250 g/ha): 20
Plant response rating, C. ragweed ([14]; Rate 500 g/ha): 20
Plant response rating, Green foxtail ([19]; Rate 250 g/ha): 100
Plant response rating, Green foxtail ([19]; Rate 500 g/ha): 100
Plant response rating, Spanishneedles [15, 21]: 0
Plant response rating, Spanishneedles [15, 22]: 0
Spanishneedles plant response rating [15, 23]: 0
Spanishneedles plant response rating [15, 20]: 0
Plant response rating, Spanishneedles ([15]; Rate 250 g/ha): 0
Plant response rating, Spanishneedles ([15]; Rate 500 g/ha): 40
Plant response rating, Guineagrass [16, 21]: 85
Plant response rating, Guineagrass [16, 22]: 90
Plant response rating, Guineagrass [16, 23]: 100
Plant response rating, Guineagrass [16, 20]: 100
Plant response rating, Guineagrass ([16]; Rate 250 g/ha): 100
Plant response rating, Guineagrass ([16]; Rate 500 g/ha): 100
Plant response rating, Purple nutsedge [17, 21]: 0
Plant response rating, Purple nutsedge [17, 22]: 0
Purple nutsedge plant response rating [17, 23]: 0
Purple nutsedge plant response rating [17, 20]: 30
Plant response rating, Purple nutsedge ([17]; Rate 250 g/ha): 65
Plant response rating, Purple nutsedge ([17]; Rate 500 g/ha): 70
Plant response rating, Com. groundsel [18, 21]: 0
Plant response rating, Com. groundsel [18, 22]: 0
Plant response rating, Com. groundsel [18, 23]: 0
Plant response rating, Com. groundsel [18, 20]: 100
Plant response rating, Com. groundsel ([18]; Rate 250 g/ha): 100
Plant response rating, Com. groundsel ([18]; Rate 500 g/ha): 100

CC(C)N(C(=O)n1oc(=O)n(N(C)C)c1=O)c1ccccc1 [Compound 225]
Plant response rating, Morningglory ([1]; Postemergence, Rate 1000 g/ha): 10
Plant response rating, Morningglory ([1]; Pre-emergence, Rate 2000 g/ha): 8
